The assay addresses T1, HEK cells stably transfected with tetracycline inducible hNR1 and hNR2A (Homo sapiens, UniProt Q05586+Q12879).
T1 construct: expressed in transfected cells; host or cells: HEK cells, stably transfected, tetracycline/doxycycline inducible
Put plainly: Assay 1: Cell-Based Assay, cytosolic calcium response to positive allosteric modulators (with 30 μM glycine and 300 nM L-glutamate, EC30). The note with it: for Max %: responses scaled relative to 100 μM L-glutamate maximal response (100%) and 0 μM L-glutamate (0%); for EC50: cytosolic calcium response, with 30 μM glycine and 300 nM L-glutamate (EC30), — = no plateau was reached. In short, it runs like this:
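Cells induced 24 h with 7.5 μg mL^−1 doxycycline plus 500 μM (+)-ketamine, loaded 60 min at 37 °C with calcium dye in Mg-free HBSS (1.8 mM Ca, probenecid, 10 μM (+)-ketamine, pH 7.15). Peak RFU over 5 min after compound addition, scaled to 100 μM L-glutamate (100%) and 0 μM (0%); four-parameter Hill fit for EC50, max % if no plateau.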

Each structure is given as a SMILES string.

T1 sequence (Q12879 23-1464, other chains not shown): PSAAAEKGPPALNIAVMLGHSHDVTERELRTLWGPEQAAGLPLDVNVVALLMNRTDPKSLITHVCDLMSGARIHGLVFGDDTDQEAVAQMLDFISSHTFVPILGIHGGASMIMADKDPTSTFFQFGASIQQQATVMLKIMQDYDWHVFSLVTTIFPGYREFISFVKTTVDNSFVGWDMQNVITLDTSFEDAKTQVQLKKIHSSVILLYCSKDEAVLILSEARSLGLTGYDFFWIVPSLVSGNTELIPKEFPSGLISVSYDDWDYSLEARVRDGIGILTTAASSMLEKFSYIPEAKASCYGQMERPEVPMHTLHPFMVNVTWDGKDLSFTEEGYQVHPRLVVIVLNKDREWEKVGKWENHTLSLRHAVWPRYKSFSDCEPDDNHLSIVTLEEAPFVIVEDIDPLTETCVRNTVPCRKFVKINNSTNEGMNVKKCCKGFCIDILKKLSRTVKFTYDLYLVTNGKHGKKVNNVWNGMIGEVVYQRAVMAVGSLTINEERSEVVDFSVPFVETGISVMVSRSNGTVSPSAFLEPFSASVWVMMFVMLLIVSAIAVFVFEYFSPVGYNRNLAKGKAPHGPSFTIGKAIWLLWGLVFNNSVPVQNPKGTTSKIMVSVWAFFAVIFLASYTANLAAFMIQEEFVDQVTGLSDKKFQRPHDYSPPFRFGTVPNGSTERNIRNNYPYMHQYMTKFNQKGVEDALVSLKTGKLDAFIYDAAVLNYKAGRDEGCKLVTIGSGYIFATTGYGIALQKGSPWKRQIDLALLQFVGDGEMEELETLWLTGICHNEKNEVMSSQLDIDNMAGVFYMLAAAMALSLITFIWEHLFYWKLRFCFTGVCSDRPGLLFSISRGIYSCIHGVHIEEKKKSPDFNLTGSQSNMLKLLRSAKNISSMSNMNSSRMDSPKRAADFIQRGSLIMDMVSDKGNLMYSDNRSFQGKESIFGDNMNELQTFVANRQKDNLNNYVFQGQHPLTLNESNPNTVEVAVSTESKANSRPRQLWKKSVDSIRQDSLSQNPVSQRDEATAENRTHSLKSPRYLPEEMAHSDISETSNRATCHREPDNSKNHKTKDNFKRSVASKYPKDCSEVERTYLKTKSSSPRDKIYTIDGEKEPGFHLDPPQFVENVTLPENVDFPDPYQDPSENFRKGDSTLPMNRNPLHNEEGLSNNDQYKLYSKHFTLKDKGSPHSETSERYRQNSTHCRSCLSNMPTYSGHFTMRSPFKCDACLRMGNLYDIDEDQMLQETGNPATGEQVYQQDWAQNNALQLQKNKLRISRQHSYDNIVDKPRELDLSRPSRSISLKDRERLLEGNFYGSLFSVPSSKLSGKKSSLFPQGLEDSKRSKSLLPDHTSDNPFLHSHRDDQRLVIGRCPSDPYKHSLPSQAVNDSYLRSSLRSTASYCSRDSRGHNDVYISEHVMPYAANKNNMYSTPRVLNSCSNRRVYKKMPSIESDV

In the case of `CNC(=O)c1c(C)sc2nc(Cc3ccc(F)c(F)c3)cc(=O)n12` [Example 21.54, 7-[(3,4-difluorophenyl)methyl]-N,2-dimethyl-5-oxo-thiazolo[3,2-a]pyrimidine-3-carboxamide], the Max % (Table 2) is reported as 46%.

`CCNC(=O)c1c(C)sc2nc(Cc3cc(F)cc(C#N)c3)cc(=O)n12` [Example 21.10, 7-(3-cyano-5-fluorobenzyl)-N-ethyl-2-methyl-5-oxo-5H-thiazolo[3,2-a]pyrimidine-3-carboxamide]: the Max % (Table 2) stood at 70.3%.

On to `Cc1sc2nc(Oc3cccc(C(F)(F)F)c3F)cc(=O)n2c1C1CC1C#N` (stereo not drawn) [compound 101, 2-[7-[2-fluoro-3-(trifluoromethyl)phenoxy]-2-methyl-5-oxo-thiazolo[3,2-a]pyrimidin-3-yl]cyclopropanecarbonitrile], for which the EC50 (Table 3) came out at 3.71 µM.

As for `CC(=O)c1csc2nc(Cn3nc(C(F)(F)F)cc3Cl)cc(=O)n12` [compound 242, 3-acetyl-7-[[5-chloro-3-(trifluoromethyl)pyrazol-1-yl]methyl]thiazolo[3,2-a]pyrimidin-5-one], the EC50 (Table 3) came out at 11.4 µM.

In the case of `Cc1sc2nc(Cn3nc(C(F)(F)F)cc3Br)cc(=O)n2c1C1CC1C#N` (single isomer, unassigned) [compound 275], under “Table 3”, the EC50 stood at 0.0737 µM.

`CCN(Cc1cc(=O)n2c(CCO)c(C)sc2n1)c1ccc(F)cc1` [Example 13.4, 7-((Ethyl(4-fluorophenyl)amino)methyl)-3-(2-hydroxyethyl)-2-methyl-5H-thiazolo[3,2-a]pyrimidin-5-one]: for the setting “Table 2”, the EC50 was 0.777 µM and the Max % is reported as 185%.

As to `Cc1sc2nc(Cn3nc(Cl)cc3C(F)(F)F)cc(=O)n2c1C(=O)C(C)C` [compound 178, 7-[[3-chloro-5-(trifluoromethyl)pyrazol-1-yl]methyl]-2-methyl-3-(2-methylpropanoyl)thiazolo[3,2-a]pyrimidin-5-one], for the setting “Table 3”, the EC50 was found to be 0.354 µM.

For `CCc1sc2nc(Cn3nc(Cl)cc3C(F)(F)F)cc(=O)n2c1C(C)=O` [compound 212, 3-acetyl-7-[[3-chloro-5-(trifluoromethyl)pyrazol-1-yl]methyl]-2-ethyl-thiazolo[3,2-a]pyrimidin-5-one], the EC50 (Table 3) was 5.84 µM.

As to `CCN(Cc1cc(=O)n2c(C(O)C(F)(F)F)c(C)sc2n1)c1ccc(F)cc1` (stereo not drawn) [Example 10.11, 7-[(N-ethyl-4-fluoro-anilino)methyl]-2-methyl-3-(2,2,2-trifluoro-1-hydroxy-ethyl)thiazolo[3,2-a]pyrimidin-5-one], under “Table 2”, the EC50 turned out to be 1.2 µM and the Max % is reported as 167%.

As for `Cc1sc2nc(Cn3nc(C(F)(F)F)c(F)c3C3CC3)cc(=O)n2c1C1CC1CO` (stereo not drawn) [Example 15.10, 7-((5-cyclopropyl-4-fluoro-3-(trifluoromethyl)-1H-pyrazol-1-yl)methyl)-3-(trans-2-(hydroxymethyl)cyclopropyl)-2-methyl-5H-thiazolo[3,2-a]pyrimidin-5-one], under “Table 2”, the EC50 worked out at 3.1 µM and the Max % is given as 133%.

Turning to `Cc1sc2nc(Cn3nc(C(F)(F)F)cc3Cl)cc(=O)n2c1-c1cncc(F)c1` [compound 138, 7-[[5-chloro-3-(trifluoromethyl)pyrazol-1-yl]methyl]-3-(5-fluoro-3-pyridyl)-2-methyl-thiazolo[3,2-a]pyrimidin-5-one], the EC50 (Table 3) worked out at 0.775 µM.

For `CC#Cc1c(C)sc2nc(CN(CC)c3ccc(F)cc3)cc(=O)n12` [Example 5.52], for the setting “Table 2”, the EC50 came out at 1.6 µM and the Max % is 58%.

Turning to `Cc1sc2nc(Cn3nc(C(F)(F)F)cc3Br)cc(=O)n2c1[C@@H]1C[C@@H]1C#N` (single isomer, unassigned) [compound 274], the EC50 (Table 3) stood at 0.012 µM.

In the case of `CCN(Cc1cc(=O)n2c3c(sc2n1)CCCC3)c1ccc(F)cc1` [Example 8.2, 2-[(N-ethyl-4-fluoro-anilino)methyl]-6,7,8,9-tetrahydropyrimido[2,1-b][1,3]benzothiazol-4-one], under “Table 2”, the half-maximal effective concentration (EC50) was determined as 7.2 µM and the Max % is reported as 122%.

As for `Cc1sc2nc(Cn3nc(C(F)(F)F)cc3Cl)cc(=O)n2c1C#N` [compound 114, 7-[[5-chloro-3-(trifluoromethyl)pyrazol-1-yl]methyl]-2-methyl-5-oxo-thiazolo[3,2-a]pyrimidine-3-carbonitrile], the EC50 (Table 3) is 1.34 µM.

Consider `CCN(Cc1cc(=O)n2c(COC)c(C)sc2n1)c1cccc(C#N)c1` [Example 10.24, 3-[ethyl-[[3-(methoxymethyl)-2-methyl-5-oxo-thiazolo[3,2-a]pyrimidin-7-yl]methyl]amino]benzonitrile], for which, under “Table 2”, the EC50 is 8.9 µM and the Max % is recorded as 160%.

As for `CCNC(=O)c1c(C(F)(F)F)sc2nc(CN(CC)c3ccc(F)cn3)cc(=O)n12` [compound 205, N-ethyl-7-[[ethyl-(5-fluoro-2-pyridyl)amino]methyl]-5-oxo-2-(trifluoromethyl)thiazolo[3,2-a]pyrimidine-3-carboxamide], under “Table 3”, the EC50 was 1.12 µM.

`N#CC1CC1c1c(C(F)(F)F)sc2nc(Cc3cccc(C(F)(F)F)c3F)cc(=O)n12` (stereo not drawn) [compound 94, 2-[7-[[2-fluoro-3-(trifluoromethyl)phenyl]methyl]-5-oxo-2-(trifluoromethyl)thiazolo[3,2-a]pyrimidin-3-yl]cyclopropanecarbonitrile]: for the setting “Table 3”, the EC50 was 2.08 µM.

Consider `Cc1sc2nc(Oc3cccc(C(F)(F)F)c3F)cc(=O)n2c1C1CC1` [compound 73, 3-cyclopropyl-7-[2-fluoro-3-(trifluoromethyl)phenoxy]-2-methyl-thiazolo[3,2-a]pyrimidin-5-one], for which, where the note is “Table 3”, the EC50 is 40.1 µM.

On to `CCNC(=O)c1c(C)sc2nc(Cc3cc(F)ccc3CC)cc(=O)n12` [Example 21.21], for which, under “Table 2”, the EC50 was determined as 33.6 µM and the Max % is 134%.

In the case of `CCN(Cc1cc(=O)n2c(CCOC)c(C)sc2n1)c1ccc(F)cc1` [Example 13.5, 7-[[Ethyl(4-fluorophenyl)amino]methyl]-3-(2-methoxyethyl)-2-methyl-5H-[1,3]thiazolo[3,2-a]pyrimidin-5-one], under “Table 2”, the EC50 is 1 µM and the Max % came out at 152%.

As to `CCN(Cc1cc(=O)n2c(-c3ccc(N)nc3)c(C)sc2n1)c1ccc(F)cc1` [Example 5.51, 3-(6-aminopyridin-3-yl)-7-((ethyl(4-fluorophenyl)amino)methyl)-2-methyl-5H-thiazolo[3,2-a]pyrimidin-3-one], where the note is “Table 2”, the EC50 is 40.7 µM and the Max % worked out at 80.3%.

`Cc1sc2nc(COc3ccc(F)cc3)cc(=O)n2c1C1CC1` [Example 4.17, 3-cyclopropyl-7-[(4-fluorophenoxy)methyl]-2-methyl-thiazolo[3,2-a]pyrimidin-5-one]: for the setting “Table 2”, the Max % is recorded as 40.3%.

As for `Cc1sc2nc(Cn3nc(C4CC4)cc3C(F)(F)F)cc(=O)n2c1C#N` [Example 17.3, 7-((3-cyclopropyl-5-(trifluoromethyl)-1H-pyrazol-1-yl)methyl)-2-methyl-5-oxo-5H-thiazolo[3,2-a]pyrimidine-3-carbonitrile], for the setting “Table 2”, the Max % is 104%.

With `C=C(C)c1c(C)sc2nc(Cn3nc(C(F)(F)F)cc3Cl)cc(=O)n12` [compound 135, 7-[[5-chloro-3-(trifluoromethyl)pyrazol-1-yl]methyl]-3-isopropenyl-2-methyl-thiazolo[3,2-a]pyrimidin-5-one], the EC50 (Table 3) amounted to 0.397 µM.

For `CCC(O)c1c(C)sc2nc(COc3ccc(F)cc3)cc(=O)n12` (stereo not drawn) [Example 2.2, 7-((4-fluorophenoxy)methyl)-3-(1-hydroxypropyl)-2-methyl-5H-thiazolo[3,2-a]pyrimidin-5-one], the Max % (Table 2) was 96.5%.

On to `Cc1sc2nc(Cc3cc(F)cc(C#N)c3)cc(=O)n2c1[C@@H]1C[C@H]1CO` (relative stereo) [Example 20.8, 3-fluoro-5-((3-(trans-2-(hydroxymethyl)cyclopropyl)-2-methyl-5-oxo-5H-thiazolo[3,2-a]pyrimidin-7-yl)methyl)benzonitrile], for which, where the note is “Table 2”, the EC50 came out at 19 µM and the Max % is listed as 134%.

For the compound `CCNC(=O)c1c(C)sc2nc(Cn3nc(C(F)(F)F)cc3Cl)cc(=O)n12` [compound 28, 7-[[5-Chloro-3-(trifluoromethyl)-1H-pyrazol-1-yl]methyl]-N-ethyl-2-methyl-5-oxo-5H-[1,3]thiazolo[3,2-a]pyrimidine-3-carboxamide], the EC50 (Table 3) was 0.388 µM.

For the compound `CCNC(=O)c1c(C(F)(F)F)sc2nc(Cn3nc(C(F)(F)F)cc3C)cc(=O)n12` [compound 45, N-ethyl-7-[[5-methyl-3-(trifluoromethyl)pyrazol-1-yl]methyl]-5-oxo-2-(trifluoromethyl)thiazolo[3,2-a]pyrimidine-3-carboxamide], for the setting “Table 3”, the EC50 was 1.25 µM.

With `CCN(Cc1cc(=O)n2c(C3CCCC3)c(C)sc2n1)c1ccc(F)cc1` [Example 9.3, 3-cyclopentyl-7-[(N-ethyl-4-fluoro-anilino)methyl]-2-methyl-thiazolo[3,2-a]pyrimidin-5-one], where the note is “Table 2”, the EC50 was determined as 7 µM and the Max % was 108%.

In the case of `CNC(=O)c1c(C)sc2nc(Cn3nc(C4CC4)cc3C(F)(F)F)cc(=O)n12` [Example 16.2, 7-((3-cyclopropyl-5-(trifluoromethyl)-1H-pyrazol-1-yl)methyl)-N,2-dimethyl-5-oxo-5H-thiazolo[3,2-a]pyrimidine-3-carboxamide], where the note is “Table 2”, the EC50 was 11.7 µM and the Max % turned out to be 110%.

Turning to `CNC(=O)c1c(C)sc2nc(Cc3cccc(Cl)c3)cc(=O)n12` [Example 21.16, 7-[(3-chlorophenyl)methyl]-N,2-dimethyl-5-oxo-thiazolo[3,2-a]pyrimidine-3-carboxamide], for the setting “Table 2”, the EC50 worked out at 14.3 µM and the Max % turned out to be 107%.

These data come from patent US9988400B2 (Genentech, Inc., priority 2013, dated 2018).
